Experimental data as given in ChEMBL document CHEMBL1201862, “PubChem BioAssay data set” (2004).
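Tested at 5 concentrations; 48 h exposure; 96-well plates; endpoints linearly interpolated, else capped at highest concentration. Here, GI50 denotes the concentration required for 50% inhibition of growth.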 Activity calls are given as the source filed them. Cut-off read from the data, not from the text of the source: active = GI50 up to about 1.1 µM and inactive = higher.

Assays:
Assay in all cases: growth of human tumour cells (NCI), 48 h
M14 = system: M14
LOX IMVI = system: LOX IMVI
SR = system: SR
SNB-78 = system: SNB-78
UACC-62 = system: UACC-62
SK-OV-3 = system: SK-OV-3
XF498 = system: XF498
SNB-75 = system: SNB-75
HT-29 = system: HT-29
DMS-114 = system: DMS-114
ACHN = system: ACHN
BT-549 = system: BT-549
SNB-19 = system: SNB-19
NCI-H23 = system: NCI-H23
NCI-H226 = system: NCI-H226
RPMI-8226 = system: RPMI-8226
IGROV-1 = system: IGROV-1
LXFL 529 = system: LXFL 529
SK-MEL-5 = system: SK-MEL-5
MOLT-4 = system: MOLT-4
HOP-18 = system: HOP-18
CCRF-CEM = system: CCRF-CEM
786-0 = system: 786-0
MCF7 = system: MCF7
RXF 631 = system: RXF 631
SW-620 = system: SW-620
HCT-15 = system: HCT-15
KM12 = system: KM12
T47D = system: T47D
DU-145 = system: DU-145
EKVX = system: EKVX
COLO 205 = system: COLO 205
SN12C = system: SN12C
HCT-116 = system: HCT-116
DMS-273 = system: DMS-273
SF-539 = system: SF-539
SF-295 = system: SF-295
U-251 = system: U-251
DLD-1 = system: DLD-1
RXF 393 = system: RXF 393
NCI-H522 = system: NCI-H522
MDA-MB-231 = system: MDA-MB-231
A549 = system: A549
TK-10 = system: TK-10
Malme-3M = system: Malme-3M
SK-MEL-2 = system: SK-MEL-2
OVCAR-5 = system: OVCAR-5
HCC 2998 = system: HCC 2998
M19-MEL = system: M19-MEL
HOP-62 = system: HOP-62
MDA-N = system: MDA-N
HOP-92 = system: HOP-92
KM-20L2 = system: KM-20L2
NCI-H460 = system: NCI-H460
OVCAR-3 = system: OVCAR-3
SK-MEL-28 = system: SK-MEL-28
OVCAR-8 = system: OVCAR-8
OVCAR-4 = system: OVCAR-4
K562 = system: K562
UACC-257 = system: UACC-257
UO-31 = system: UO-31
CAKI-1 = system: CAKI-1
HL-60 = system: HL-60
A498 = system: A498
Hs-578T = system: Hs-578T
MDA-MB-435 = system: MDA-MB-435
SF-268 = system: SF-268

C/C(=N\N=C(/S)N1CCCCCC1)c1cccc[n+]1[O-]
GI50 (M14): 2.72 µM (inactive)
GI50 (LOX IMVI): 4.52 µM (inactive)
GI50 (SR): 4.01 µM (inactive)
GI50 (SNB-78): 11 µM (inactive)
GI50 (UACC-62): 1.88 µM (inactive)
GI50 (SK-OV-3): 20.8 µM (inactive)
GI50 (XF498): 5.27 µM (inactive)
GI50 (SNB-75): 10.5 µM (inactive)
GI50 (HT-29): 0.31 µM (active)
GI50 (DMS-114): 0.0198 µM (active)
GI50 (ACHN): 4.58 µM (inactive)
GI50 (BT-549): 16 µM (inactive)
GI50 (SNB-19): 7.41 µM (inactive)
GI50 (NCI-H23): 5.82 µM (inactive)
GI50 (NCI-H226): 7.69 µM (inactive)
GI50 (RPMI-8226): 0.116 µM (active)
GI50 (IGROV-1): 1.91 µM (inactive)
GI50 (LXFL 529): 0.348 µM (active)
GI50 (SK-MEL-5): 2.22 µM (inactive)
GI50 (MOLT-4): 0.129 µM (active)
GI50 (HOP-18): 18.2 µM (inactive)
GI50 (CCRF-CEM): 0.109 µM (active)
GI50 (786-0): 1.53 µM (inactive)
GI50 (MCF7): 2.64 µM (inactive)
GI50 (RXF 631): 8.59 µM (inactive)
GI50 (SW-620): 1.64 µM (inactive)
GI50 (HCT-15): 0.845 µM
GI50 (KM12): 4.52 µM (inactive)
GI50 (T47D): 3.4 µM (inactive)
GI50 (DU-145): 31.5 µM (inactive)
GI50 (EKVX): 7.23 µM (inactive)
GI50 (COLO 205): 0.499 µM (active)
GI50 (SN12C): 13.8 µM (inactive)
GI50 (HCT-116): 0.433 µM (active)
GI50 (DMS-273): 1.87 µM (inactive)
GI50 (SF-539): 4.54 µM (inactive)
GI50 (SF-295): 5.3 µM (inactive)
GI50 (U-251): 6.28 µM (inactive)
GI50 (DLD-1): 0.0279 µM (active)
GI50 (RXF 393): 18.4 µM (inactive)
GI50 (NCI-H522): 0.592 µM (active)
GI50 (MDA-MB-231): 7.59 µM (inactive)
GI50 (A549): 4.36 µM (inactive)
GI50 (TK-10): 21.5 µM (inactive)
GI50 (Malme-3M): 1.6 µM (inactive)
GI50 (SK-MEL-2): 2.37 µM (inactive)
GI50 (OVCAR-5): 21.4 µM (inactive)
GI50 (HCC 2998): 1.71 µM (inactive)
GI50 (M19-MEL): 8.39 µM (inactive)
GI50 (HOP-62): 1.12 µM (active)
GI50 (MDA-N): 6.47 µM (inactive)
GI50 (HOP-92): 11.1 µM (inactive)
GI50 (KM-20L2): 0.839 µM (active)
GI50 (NCI-H460): 1.8 µM (inactive)
GI50 (OVCAR-3): 0.61 µM (active)
GI50 (SK-MEL-28): 6.58 µM (inactive)
GI50 (OVCAR-8): 3.12 µM (inactive)
GI50 (OVCAR-4): 8.17 µM (inactive)
GI50 (K562): 0.0883 µM (active)
GI50 (UACC-257): 1.33 µM (inactive)
GI50 (UO-31): 7.55 µM (inactive)
GI50 (CAKI-1): 6.37 µM (inactive)
GI50 (HL-60): 0.336 µM (active)
GI50 (A498): 21.6 µM (inactive)
GI50 (Hs-578T): 33 µM (inactive)
GI50 (MDA-MB-435): 9.57 µM (inactive)
GI50 (SF-268): 9.29 µM (inactive)
